This assay has as its target T1, GBA2 (Homo sapiens, UniProt Q9HCG7).
T1 sequence (Q9HCG7 1-927): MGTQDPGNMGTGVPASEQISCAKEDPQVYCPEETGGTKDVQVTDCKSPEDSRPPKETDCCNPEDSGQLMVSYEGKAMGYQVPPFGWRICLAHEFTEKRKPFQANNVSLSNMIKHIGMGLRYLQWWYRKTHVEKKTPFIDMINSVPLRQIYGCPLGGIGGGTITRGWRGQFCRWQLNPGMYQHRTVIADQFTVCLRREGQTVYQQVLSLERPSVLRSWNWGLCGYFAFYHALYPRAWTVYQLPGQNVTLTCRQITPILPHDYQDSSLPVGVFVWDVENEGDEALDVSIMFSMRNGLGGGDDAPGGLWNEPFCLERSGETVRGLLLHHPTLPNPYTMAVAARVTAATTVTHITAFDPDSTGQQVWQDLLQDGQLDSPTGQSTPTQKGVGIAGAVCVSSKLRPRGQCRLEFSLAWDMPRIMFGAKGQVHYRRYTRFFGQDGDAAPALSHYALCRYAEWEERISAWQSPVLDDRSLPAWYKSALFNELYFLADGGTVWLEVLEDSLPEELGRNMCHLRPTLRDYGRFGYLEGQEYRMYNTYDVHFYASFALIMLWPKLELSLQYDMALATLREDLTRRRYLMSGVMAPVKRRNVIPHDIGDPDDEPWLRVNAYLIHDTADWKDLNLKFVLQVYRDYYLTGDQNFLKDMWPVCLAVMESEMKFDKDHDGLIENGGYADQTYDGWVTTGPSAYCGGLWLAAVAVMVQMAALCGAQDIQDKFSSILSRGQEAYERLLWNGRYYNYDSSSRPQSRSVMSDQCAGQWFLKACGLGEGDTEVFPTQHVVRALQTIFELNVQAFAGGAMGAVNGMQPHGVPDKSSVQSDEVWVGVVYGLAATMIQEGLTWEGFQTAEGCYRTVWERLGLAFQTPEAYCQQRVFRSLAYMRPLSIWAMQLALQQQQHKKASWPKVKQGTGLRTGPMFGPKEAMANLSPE
Briefly: Labelling kinetics of ABP 4 on GBA2 by SDS-PAGE. Particulars: HEK293T GBA1/2 KO, GBA2 OE lysate; pH 5.8; 37 °C. It counts as biochemical. Further details: expressed in transfected cells; host or cells: HEK293T GBA1/GBA2 KO (CRISPR/Cas9), GBA2 overexpressed. The protocol:
To this end, lysates of HEK293T cells containing all β-glucosidases (endogenous GBA1 with overexpressed GBA2 and GBA3) were treated with ABPs 3, 4, 5 or 7, followed by protein separation by SDS-PAGE and fluorescence scanning of the wet gel slabs. […] In contrast, the β-D-Araf aziridine ABPs 3 and 4 selectively labelled GBA2 at a concentration of 100 nM, while Cy5 tagged ABP 5 did so at 500 nM. The GBA2 selectivity of β-D-Araf cyclitol aziridines 3, 4 and 5 was confirmed in a mixture of a lysate of overexpressed GBA2 cells spiked with 3 ng rhGBA1 (Fig. 2C and ESI Fig. S3 ^†). […] Therefore, only a combined inactivation rate constant (kinact) and binding constant (KI) ratio (kinact/KI) could be measured. […] Importantly, no labelling of GBA1 or GBA3 was detected under varying pH and time conditions (ESI Fig. S4-2 ^†).
Figure S4-1. […] A) Percentage of GBA2 labelling by ABP 4 (left graphs), data was quantified from three independent sets of fluorescent gels under the depicted conditions. […]
of inhibitors diluted in McIlvaine buffer (150 mM, pH 5.2) at 37 °C for 30 min or 3 h. […] After stopping the enzyme reaction with 200 μL 1 M NaOH-glycine (pH 10.3), 4-methylumbelliferone fluorescence was measured with a fluorimeter LS55 (Perkin Elmer, Waltham, MA, USA) with λEX 366 nm and λEM 445 nm. […]

With `COc1ccc(C2=[N+]3C(=C(CCCCc4cn(CCCCCCCCN5[C@@H]6[C@H](CO)[C@@H](O)[C@H](O)[C@@H]65)nn4)c4ccc(-c5ccc(OC)cc5)n4[B-]3(F)F)C=C2)cc1` (stereo partly shown) [ABP 4], the kinact/KI – broadly, the second-order rate constant of inactivation – was 19200 M⁻¹ s⁻¹.

These data come from article PMC11375437, “Selective labelling of GBA2 in cells with fluorescent β-D-arabinofuranosyl cyclitol aziridines” (Chemical Science, 2024).
